From the supplement of paper PMC10307832

Assays:
Experiment in all cases: relative viability (nuclei count vs DMSO), 5 days (fraction); higher = more cells survive
[1] = compound: O=c1[nH]cc(F)c(=O)[nH]1 [5-Fluorouracil] + CC(=O)c1c(C)c2cnc(Nc3ccc(N4CCNCC4)cn3)nc2n(C2CCCC2)c1=O [Palbociclib] (partner 0.5 µM)
How it was run: (§1)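 Values are medians from duplicate plates. Each reflects relative viability, defined as the nuclei count of treated wells over that of vehicle wells. Lung cancer cell lines in 1536-well plates were pin-tool dosed one day after seeding with one drug alone or with a fixed anchor-drug dose plus five library-drug doses (not always all listed) in √10 steps, then fixed, stained and imaged at 4× after 5 days.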

[2] = compound: CN[C@@H]1C[C@H]2O[C@@](C)([C@@H]1OC)n1c3ccccc3c3c4c(c5c6ccccc6n2c5c31)C(=O)NC4 [Staurosporine] + Nc1ncn([C@H]2C[C@H](O)[C@@H](CO)O2)c(=O)n1 [Decitabine] (partner 2 µM)
How it was run: as §1

[3] = compound: O=c1[nH]cc(F)c(=O)[nH]1 [5-Fluorouracil] + O=C(CCCCCCC(=O)Nc1ccccc1)NO [Vorinostat] (partner 1 µM)
How it was run: as §1

[4] = compound: CN[C@@H]1C[C@H]2O[C@@](C)([C@@H]1OC)n1c3ccccc3c3c4c(c5c6ccccc6n2c5c31)C(=O)NC4 [Staurosporine] + Cc1nc(NC(=O)N2CCC[C@H]2C(N)=O)sc1-c1ccnc(C(C)(C)C(F)(F)F)c1 [Alpelisib] (partner 2 µM)
How it was run: as §1

Cell Line	relative viability ([1]; first compound 0.02 µM)	relative viability ([1]; first compound 0.2 µM)	relative viability ([1]; first compound 0.6325 µM)	relative viability ([1]; first compound 2 µM)	relative viability ([2]; first compound 0.005 µM)	relative viability ([2]; first compound 0.01581 µM)	relative viability ([2]; first compound 0.05 µM)	relative viability ([2]; first compound 0.1581 µM)	relative viability ([2]; first compound 0.5 µM)	relative viability ([3]; first compound 0.02 µM)	relative viability ([3]; first compound 0.2 µM)	relative viability ([3]; first compound 0.6325 µM)	relative viability ([3]; first compound 2 µM)	relative viability ([4]; first compound 0.005 µM)	relative viability ([4]; first compound 0.01581 µM)	relative viability ([4]; first compound 0.05 µM)	relative viability ([4]; first compound 0.1581 µM)	relative viability ([4]; first compound 0.5 µM)
NCI-H2126	0.348	0.29	0.299	0.274	0.612	0.521	0.468	0.43	0.363	0.59	0.296	0.279	0.262	0.827	0.636	0.495	0.426	0.341
LC-2-ad	0.519	0.523	0.467	0.325	0.765	0.695	0.623	0.167	0.166	0.697	0.589	0.42	0.256	0.178	0.338	0.237	0.0434	0.0442
SK-LU-1	0.398	0.388	0.382	0.373	0.331	0.232	0.212	0.229	0.154	0.705	0.885	0.744	0.681	0.264	0.188	0.18	0.158	0.122
EBC-1	–	–	–	–	–	–	–	–	–	–	–	–	–	0.367	0.307	0.151	0.157	0.145
HCC-15	0.499	0.744	0.52	0.302	0.436	–	0.274	0.134	0.106	0.952	0.912	0.554	0.327	0.887	–	0.64	0.453	0.262
